Measured values published in patent US8471061B2 (priority 2004, dated 2013).
“And” between values parts separate entries of the source, which are not always exact repeats. Identical values can stand only once. Counter-ions that a name gives are not always drawn. Like-named read-outs stand apart in the source and are kept apart here.

Key:
[1] = test system: Salmonella typhimurium TA 100; assay: Back mutation test, TA100; assay type: cell-based
Description: (§1) A test was carried out in accordance with the “Standard of Mutagenicity Tests Using Microorganisms” (Ministry of Labor Notification No. 77, 1988) (partial revision by Ministry of Labor Notification No. 67, 1997) and “Regarding the Tests Concerning Novel Chemical Substances and the like” (dated Nov. 21, 2003: Yaku-Shoku-Hatsu No. 1121002, 2003.11.13 Sei-Kyoku, No. 2, Kan-Ho-Ki-Hatsu No. 031121002). To 0.1 ml of a solution prepared by dissolving 5% (w/v) of 5-aminolevulinic acid phosphate in distilled water (Wako Pure Chemical Industries), 0.5 ml of 0.1 M sodium-phosphate buffer (pH 7.4) (0.5 ml S9 mix in the case of metabolism activation test) was added, and 0.1 ml of each test strain suspension (5 strains of histidine-less Salmonella typhimurium TA 100, TA 98, TA 1535 and TA 1537 and tryptophan-less Escherichia coli WP2 uvrA were used (Japan Bioassay Research Center)) was further added thereto, followed by pre-incubation at 37° C. for 20 minutes while shaking. After completion of the culturing, 2.0 ml of top agar kept at 45° C. in advance was added thereto and layered on a minimum glucose agar plate medium. In this case, 2 plates were arranged for each dosage. However, 3 plates were arranged for a solvent control (negative control). […] In the measurement, an inner area of about 80 mm in diameter of a plate of 86 mm in diameter (84 mm in inner diameter) was measured using an automatic colony analyzer (CA-11: manufactured by System Science), and calculated by carrying out area correction and counting loss correction using a personal computer. However, since reliability of the automatic colony analyzer is reduced when the number of colonies is 1,500 or more, 5 points in the plate were manually measured under the stereoscopic microscope to carry out area correction of the average value. A dosage setting test was carried out on 7 dosages diluted at a common ratio of 4, using a dosage of 5,000 μg/plate as the maximum which is the maximum dosage defined by the guideline. […] Growth inhibition of the strains by this substance to be tested was not found. […] Thus, this test was carried out by setting 5 dosages diluted at a common ratio of 2, using a dosage of 5,000 μg/plate as the maximum which is the maximum dosage defined by the guideline.

[2] = test system: Escherichia coli WP2 uvrA; assay: Back mutation test, WP2uvrA; assay type: cell-based
Description: as §1

[3] = test system: Salmonella typhimurium TA 98; assay: Back mutation test, TA98; assay type: cell-based
Description: as §1

[4] = test system: Salmonella typhimurium TA 1537; conditions: TA1537; for Positive control, number of back mutation, single plates: dihydrochloride
Description: (§2) A test was carried out in accordance with the “Standard of Mutagenicity Tests Using Microorganisms” (Ministry of Labor Notification No. 77, 1988) (partial revision by Ministry of Labor Notification No. 67, 1997) and “Regarding the Tests Concerning Novel Chemical Substances and the like” (dated Nov. 21, 2003: Yaku-Shoku-Hatsu No. 1121002, 2003.11.13 Sei-Kyoku, No. 2, Kan-Ho-Ki-Hatsu No. 031121002). To 0.1 ml of a solution prepared by dissolving 5% (w/v) of 5-aminolevulinic acid phosphate in distilled water (Wako Pure Chemical Industries), 0.5 ml of 0.1 M sodium-phosphate buffer (pH 7.4) (0.5 ml S9 mix in the case of metabolism activation test) was added, and 0.1 ml of each test strain suspension (5 strains of histidine-less Salmonella typhimurium TA 100, TA 98, TA 1535 and TA 1537 and tryptophan-less Escherichia coli WP2 uvrA were used (Japan Bioassay Research Center)) was further added thereto, followed by pre-incubation at 37° C. for 20 minutes while shaking. After completion of the culturing, 2.0 ml of top agar kept at 45° C. in advance was added thereto and layered on a minimum glucose agar plate medium. In this case, 2 plates were arranged for each dosage. However, 3 plates were arranged for a solvent control (negative control). […] In the measurement, an inner area of about 80 mm in diameter of a plate of 86 mm in diameter (84 mm in inner diameter) was measured using an automatic colony analyzer (CA-11: manufactured by System Science), and calculated by carrying out area correction and counting loss correction using a personal computer. However, since reliability of the automatic colony analyzer is reduced when the number of colonies is 1,500 or more, 5 points in the plate were manually measured under the stereoscopic microscope to carry out area correction of the average value. A dosage setting test was carried out on 7 dosages diluted at a common ratio of 4, using a dosage of 5,000 μg/plate as the maximum which is the maximum dosage defined by the guideline.

[5] = test system: Salmonella typhimurium TA 1535; conditions: TA1535
Description: as §2

[6] = test system: radish; assay: Plant activating effect, foliar application, radish; assay type: in vivo; conditions: 21 days, 12 seeds
Description: After 600 g of upland soil was packed in a porcelain pot of 12 cm in inner diameter, 12 grains of radish seeds were sowed therein, covered with 5 mm in depth of the soil and allowed to grow in a green house. Foliar application treatment was carried out once a day using the following application liquids. Conditions of the leaves 21 days thereafter were observed.

[7] = test system: spiderwort Commelina communis; assay: Plant activating effect, foliar application, spiderwort; assay type: in vivo; conditions: 21 days, 12 plants
Description: A total of 12 pots, in which 600 g of volcanic ash soil was packed in a porcelain pot of 12 cm in inner diameter, and 1 plant of a spiderwort Commelina communis grown to a height of 15 cm was planted in 1 pot, were prepared and placed under a constant temperature environment of 20° C., and foliar application treatment was carried out once a day using the following application liquids. Conditions of the leaves 21 days thereafter were observed.

[8] = S9 Mix not required, 0.01 μg/plate
[9] = S9 Mix not required, 0.1 μg/plate
[10] = S9 Mix not required, 1.0 μg/plate
[11] = S9 Mix not required, 0.5 μg/plate

## NC(=O)C(=Cc1ccc([N+](=O)[O-])o1)c1ccco1 [AF-2, 2-(2-furyl)-3-(5-nitro-2-furyl)acrylamide, reference compound]
[1]; [8]
  Positive control, number of back mutation, mean (in parentheses): (572) Colonies/plate
  Positive control, number of back mutation, single plates: 564 Colonies/plate and 580 Colonies/plate
[1]; S9 Mix required, 1.0 μg/plate
  Positive control, number of back mutation, mean (in parentheses): (1230) Colonies/plate
  Positive control, number of back mutation, single plates: 1275 Colonies/plate and 1184 Colonies/plate
[2]; [8]
  Positive control, number of back mutation, mean (in parentheses): (152) Colonies/plate
  Positive control, number of back mutation, single plates: 155 Colonies/plate and 149 Colonies/plate
[2]; S9 Mix required, 10.0 μg/plate
  Positive control, number of back mutation, mean (in parentheses): (1267) Colonies/plate
  Positive control, number of back mutation, single plates: 1230 Colonies/plate and 1304 Colonies/plate
[3]; [9]
  Positive control, number of back mutation, mean (in parentheses): (568) Colonies/plate
  Positive control, number of back mutation, single plates: 575 Colonies/plate and 560 Colonies/plate
[3]; S9 Mix required, 0.5 μg/plate
  Positive control, number of back mutation, mean (in parentheses): (665) Colonies/plate
  Positive control, number of back mutation, single plates: 661 Colonies/plate and 668 Colonies/plate

## COc1ccc2nc3cc(Cl)ccc3c(NCCCNCCCl)c2c1 [ICR-191, 6-chloro-9-[3-(2-chloroethylamine)-propylamino]-2-methoxyacridine dihydrochloride, reference compound]
[4]; [10]
  Positive control, number of back mutation, mean (in parentheses): (4001) Colonies/plate
  Positive control, number of back mutation, single plates: 4068 Colonies/plate and 3934 Colonies/plate
[4]; S9 Mix required, 2.0 μg/plate
  Positive control, number of back mutation, mean (in parentheses): (262) Colonies/plate
  Positive control, number of back mutation, single plates: 257 Colonies/plate and 267 Colonies/plate

## [N-]=[N+]=[N-] [NaN3, sodium azide, reference compound]
[5]; [11]
  Positive control, number of back mutation, mean (in parentheses): (210) Colonies/plate
  Positive control, number of back mutation, single plates: 203 Colonies/plate and 216 Colonies/plate
[5]; S9 Mix required, 2.0 μg/plate
  Positive control, number of back mutation, mean (in parentheses): (138) Colonies/plate
  Positive control, number of back mutation, single plates: 137 Colonies/plate and 138 Colonies/plate

## Cc1ccc(S(=O)(=O)O)cc1 [p-toluenesulfonic acid]
[6]; 1 ppm in tap water
  plants judged 0: Abnormality was not found on the leaf surface: 1 plant^ plants
  plants judged 1: A region discolored to yellow was found on the leaf surface: 2 plants
  plants judged 2: A necrotic region was found on the leaf surface: 9 plants
[6]; 10 ppm in tap water
  plants judged 0: Abnormality was not found on the leaf surface: 1 plant^ plants
  plants judged 1: A region discolored to yellow was found on the leaf surface: 2 plants
  plants judged 2: A necrotic region was found on the leaf surface: 9 plants
[6]; 100 ppm in tap water
  plants judged 0: Abnormality was not found on the leaf surface: 0 plant^ plants
  plants judged 1: A region discolored to yellow was found on the leaf surface: 3 plants
  plants judged 2: A necrotic region was found on the leaf surface: 9 plants

## O=[N+]([O-])[O-].[Na+] [sodium nitrate]
[6]; 1 ppm in tap water
  plants judged 0: Abnormality was not found on the leaf surface: 2 plants
  plants judged 1: A region discolored to yellow was found on the leaf surface: 6 plants
  plants judged 2: A necrotic region was found on the leaf surface: 4 plants
[6]; 10 ppm in tap water
  plants judged 0: Abnormality was not found on the leaf surface: 2 plants
  plants judged 1: A region discolored to yellow was found on the leaf surface: 4 plants
  plants judged 2: A necrotic region was found on the leaf surface: 6 plants
[6]; 100 ppm in tap water
  plants judged 0: Abnormality was not found on the leaf surface: 2 plants
  plants judged 1: A region discolored to yellow was found on the leaf surface: 5 plants
  plants judged 2: A necrotic region was found on the leaf surface: 5 plants

## O=P(O)(O)O [sodium phosphate]
[7]; 1 ppm in tap water
  plants judged 0: Abnormality was not found on the leaf surface: 4 plants
  plants judged 1: A region discolored to yellow was found on the leaf surface: 3 plants
  plants judged 2: A necrotic region was found on the leaf surface: 5 plants
[7]; 10 ppm in tap water
  plants judged 0: Abnormality was not found on the leaf surface: 2 plants
  plants judged 1: A region discolored to yellow was found on the leaf surface: 4 plants
  plants judged 2: A necrotic region was found on the leaf surface: 6 plants
[7]; 100 ppm in tap water
  plants judged 0: Abnormality was not found on the leaf surface: 3 plants
  plants judged 1: A region discolored to yellow was found on the leaf surface: 2 plants
  plants judged 2: A necrotic region was found on the leaf surface: 7 plants
